Consider 13 compounds from ChEMBL document CHEMBL1131315, “Synthesis and anticonvulsant activity of 2(3H)-benzoxazolone and 2(3H)-benzothiazolone derivatives” (J Med Chem, 1998).

The subject of series [1] is Mus musculus. Nature of the series: Anticonvulsant activity in Maximal electroshock seizure test at 100 mg/kg i.p. in mice. The series is classed as functional, organism-based. Further details: dose 100 mg/kg. On the technique in general: The maximal electroshock test induces tonic seizures with an electrical stimulus.
The test system of series [2] is Mus musculus. Nature of the series: The anticonvulsant activity in subcutaneous pentylenetetrazole seizure test (sc Met) for 4 hr in mice; no activity or no toxicity at 300 mg/kg. The series is classed as functional, organism-based. Further details: dose 300 mg/kg.
A short description of series [3]: The compound was tested for neurologic toxicity (rotarod) test for 4 hours in mice; no activity or no toxicity at 300 mg/kg. Details: dose 300 mg/kg. It counts as organism-based. To be noted: mouse, in vivo. A general note: The rotarod test checks motor coordination on a turning rod.
The test system of series [4] is Mus musculus. Nature of the series: The compound was tested for anticonvulsant activity in Maximal electroshock seizure test (MES) for 4 hr in mice(ip); no activity or toxicity at 300 mg/kg. It counts as functional, organism-based. Further details: dose 300 mg/kg.
Series [5] can be described thus: The compound was tested for neurologic toxicity (rotarod) test for 30 min in mice; active at 300 mg/kg. Further details: dose 300 mg/kg. Particulars: mouse, in vivo, 0.5 h. The series is classed as organism-based.
Series [6] concerns Mus musculus. Nature of the series: Anticonvulsant activity in subcutaneous pentylenetetrazole seizure test for 30 min in mice; No activity/toxicity at 300 mg/kg. The series is classed as functional, organism-based. Details: dose 300 mg/kg.
In series [7] the test system is Mus musculus. Nature of the series: The compound was tested for anticonvulsant activity in subcutaneous pentylenetetrazole seizure test (sc Met) for 30 min in mice; active at 100 mg/kg. The series is classed as functional, organism-based. Further details: dose 100 mg/kg.
Series [8] in a line: The compound was tested for neurologic toxicity (rotarod) test for 30 min in mice; active at 100 mg/kg. To be noted: mouse, in vivo, 0.5 h. Details: dose 100 mg/kg. It counts as organism-based.
For series [9], the target named is Sigma non-opioid intracellular receptor 1 (Homo sapiens) (UniProt Q99720). Nature of the series: Ratio between the Ki(nM)values of sigma-2 and sigma-1. It counts as functional.
Series [10] in a line: The compound was tested for time of peak effect (TPE) in hours for its toxicity in mice on ip administration. It counts as organism-based. Particulars: mouse, in vivo.
The subject of series [11] is Mus musculus. As to the kind of experiment: Inhibition of s.c. pentylenetetrazole induced seizure in mice following i.p. administration. The series is classed as functional.
Series [12] is described as follows: The compound was determined for the dose (mg/kg) by rotarod test at the time of peak neurotoxic effect in mice on ip administration. It counts as ADME, organism-based. Particulars: mouse, in vivo.
Series [13] relates to Mus musculus. As to the kind of experiment: Time of peak effect in mice following i.p. administration. The series is classed as functional.
The subject of series [14] is Mus musculus. As to the kind of experiment: The compound was tested to inhibit 50% of induced maximal electroshock seizure in mice on ip administration. It counts as functional.
A further series addresses Sigma 2 receptor. As to the kind of experiment: Affinity on sigma 2 receptor using [3H]- DTG as radioligand.
Series [15] relates to Mus musculus. Nature of the series: The compound was tested for anticonvulsant activity in Maximal electroshock seizure test for 30 min in mice(ip); active at 30 mg/kg. It counts as functional, organism-based. Details: dose 30 mg/kg.
For series [16], the system named is Mus musculus. Nature of the series: The compound was tested to inhibit 50% of induced maximal electroshock seizure in mice on ip administration. It counts as functional.
Series [17] in a line: The compound was tested for neurologic toxicity (rotarod) test for 30 min in mice; no activity or no toxicity at 300 mg/kg. To be noted: mouse, in vivo, 0.5 h. Details: dose 300 mg/kg. It counts as organism-based.
Series [18] can be described thus: The compound was tested for neurologic toxicity (rotarod) test for 4 hours in mice; active at 300 mg/kg. It counts as organism-based. Details: dose 300 mg/kg. Particulars: mouse, in vivo.
Series [19] relates to Mus musculus. As to the kind of experiment: The compound was tested for anticonvulsant activity in Maximal electroshock seizure test (MES) for 4 hr in mice(ip); active at 300 mg/kg. The series is classed as functional, organism-based. Details: dose 300 mg/kg.

Active and inactive are the calls of the source. No cut-off for these calls is given here. Some results are limits rather than exact numbers.

Sequence of Sigma non-opioid intracellular receptor 1 (Homo sapiens) (Q99720 whole entry): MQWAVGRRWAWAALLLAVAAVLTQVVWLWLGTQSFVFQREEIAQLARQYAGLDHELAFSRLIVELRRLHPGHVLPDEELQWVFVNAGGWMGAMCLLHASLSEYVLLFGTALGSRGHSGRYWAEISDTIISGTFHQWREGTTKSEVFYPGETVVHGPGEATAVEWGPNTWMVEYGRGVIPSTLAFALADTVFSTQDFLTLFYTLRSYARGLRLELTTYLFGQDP

Turning to `O=c1[nH]c2ccccc2o1` [BENZOXAZOLINONE], the MES result in the series with Mus musculus [1] and in the series on Mus musculus [4] was “No activity or toxicity at 300 mg/kg” throughout. For the same compound, the scMet entry in the series on Mus musculus [2] and with Mus musculus [6] was “No activity or no toxicity at 300 mg/kg” each time. In addition, the Rotarod toxicity result in series [3] and in [5] was “active at 300 mg/kg” in each case.
Turning to `CCC(=O)c1ccc2c(c1)oc(=O)n2C`, the MES result in the series on Mus musculus [1] and in the series on Mus musculus [4] was “No activity or toxicity at 300 mg/kg” in each case. Also, the scMet result in the series with Mus musculus [2] and in the series on Mus musculus [7] was “active at 100 mg/kg” each time. The Rotarod toxicity entry in [3] and in series [8] was “active at 100 mg/kg” throughout.
Regarding `CCC(=O)c1ccc2c(c1)sc(=O)n2CCN1CCCC1`, the scMet entry with Mus musculus [2] and with Mus musculus [6] was “No activity or no toxicity at 300 mg/kg” throughout. The Rotarod toxicity entry in series [3] and in series [8] was “active at 100 mg/kg” each time. The MES entry in the series with Mus musculus [4] and in the series with Mus musculus [15] was “active at 30 mg/kg” throughout. Moreover, the Ratio in series [9] is 1.6. The same compound returned a Toxicity in series [10] of 0.25 h. Further, the ED50 (usually the midpoint of the dose-response relation) with Mus musculus [11] is more than 80 mg/kg; in the series with Mus musculus [14], 13.9 mg/kg. Moreover, the TD50 (commonly the dose at which the toxic effect under study appears in half of the subjects) in series [12] is 48.4 mg/kg. The compound also showed an Activity in the series with Mus musculus [13] of 0.25 h. For the same compound, at Sigma 2 receptor, the affinity, expressed as Ki, was 919 nM.
On to `CCCCC(=O)c1ccc2c(c1)oc(=O)n2CCN1CCCCC1`, for which the MES result with Mus musculus [1] and with Mus musculus [4] was “No activity or toxicity at 300 mg/kg” each time. Moreover, the scMet entry in the series with Mus musculus [2] and with Mus musculus [6] was “No activity or no toxicity at 300 mg/kg” in each case. The Rotarod toxicity entry in [3] and in series [8] was “active at 100 mg/kg” each time.
Take `CCC(=O)c1ccc2c(c1)oc(=O)n2CCN1CCCCC1`: the MES entry in the series with Mus musculus [1] and in the series on Mus musculus [4] was “No activity or toxicity at 300 mg/kg” throughout. Further, the scMet entry in the series with Mus musculus [2] and in the series with Mus musculus [6] was “No activity or no toxicity at 300 mg/kg” each time. In addition, the Rotarod toxicity result in [3] and in series [8] was “active at 100 mg/kg” throughout. The Ratio in series [9] was 13. In series [10], this compound returned a Toxicity of 0.25 h. The ED50 in the series on Mus musculus [11] was more than 100 mg/kg; in the series on Mus musculus [16], 61 mg/kg. In series [12], the TD50 was 72.9 mg/kg. Also, the Activity with Mus musculus [13] worked out at 0.25 h. Besides, the Ki (as a rule, a dissociation constant, usually derived from enzyme kinetics or from competition with a known ligand) on Sigma 2 receptor was found to be 900 nM.
For `CN(C)CCn1c(=O)oc2cc(C(=O)c3ccccc3)ccc21`, the Rotarod toxicity entry in series [17] and in series [18] was “active at 300 mg/kg” in each case. Moreover, the MES result in the series on Mus musculus [1] and in the series with Mus musculus [19] was “active at 300 mg/kg” each time. Further, the scMet entry with Mus musculus [2] and with Mus musculus [6] was “No activity or no toxicity at 300 mg/kg” each time. The Ratio in series [9] is more than 27. Also, the Toxicity in series [10] is 0.25 h. In addition, the results for the ED50 with Mus musculus [11] and with Mus musculus [14] were more than 120 mg/kg and 84.4 mg/kg, respectively. Moreover, the TD50 in series [12] came out at 99 mg/kg. Besides, the Activity with Mus musculus [13] worked out at 0.25 h. On Sigma 2 receptor, this compound had an inhibitory constant (Ki) of more than 10000 nM.
On to `CCCCC(=O)c1ccc2c(c1)sc(=O)n2CCN(C)C`, for which the scMet entry in the series with Mus musculus [2] and with Mus musculus [6] was “No activity or no toxicity at 300 mg/kg” throughout. The Rotarod toxicity entry in series [3] and in series [8] was “active at 100 mg/kg” in each case. The MES entry in the series with Mus musculus [4] and in the series on Mus musculus [15] was “active at 30 mg/kg” in each case. The Ratio in series [9] was 7. Also, in series [10], the Toxicity was determined as 0.25 h. Also, the ED50 with Mus musculus [11] is more than 70 mg/kg; in the series on Mus musculus [14], 27.3 mg/kg. Moreover, in [12], the TD50 was determined as 61.5 mg/kg. Further, the Activity with Mus musculus [13] was found to be 0.25 h. The compound further displayed a Ki at Sigma 2 receptor of 4610 nM.
On to `CCCCC(=O)c1ccc2c(c1)sc(=O)n2CCN1CCOCC1`, for which the MES result in the series on Mus musculus [1] and in the series with Mus musculus [19] was “active at 300 mg/kg” each time. Further, the scMet entry with Mus musculus [2] and in the series on Mus musculus [6] was “No activity or no toxicity at 300 mg/kg” throughout. In addition, the Rotarod toxicity result in series [18] and in series [8] was “active at 100 mg/kg” in each case.
With `CCCCCc1ccc2nc(O)oc2c1`, the MES entry with Mus musculus [1] and in the series on Mus musculus [19] was “active at 300 mg/kg” throughout. Further, the scMet entry with Mus musculus [2] and with Mus musculus [7] was “active at 100 mg/kg” each time. In addition, the Rotarod toxicity entry in series [3] and in series [8] was “active at 100 mg/kg” throughout. Besides, in series [10], the Toxicity worked out at 1 h. In addition, the ED50 with Mus musculus [11] was 80.7 mg/kg; in the series on Mus musculus [16], 70.8 mg/kg. In [12], this compound came in with a TD50 of 168 mg/kg. Moreover, the Activity with Mus musculus [13] worked out at 0.5 h.
Consider `CCCc1ccc2nc(O)oc2c1`, for which the MES entry with Mus musculus [1] and in the series on Mus musculus [19] was “active at 300 mg/kg” throughout. Further, the scMet result in the series on Mus musculus [2] and with Mus musculus [7] was “active at 100 mg/kg” throughout. The Rotarod toxicity entry in series [18] and in series [8] was “active at 100 mg/kg” in each case.
Take `CCCCC(=O)c1ccc2c(c1)oc(=O)n2CCCN1CCCCC1`: the MES result in the series with Mus musculus [1] and with Mus musculus [19] was “active at 300 mg/kg” in each case. Besides, the scMet entry with Mus musculus [2] and in the series on Mus musculus [6] was “No activity or no toxicity at 300 mg/kg” in each case. For the same compound, the Rotarod toxicity entry in [3] and in series [8] was “active at 100 mg/kg” throughout.
With `O=C(c1ccccc1)c1ccc2nc(O)oc2c1`, the Rotarod toxicity entry in series [17] and in [3] was “No activity or no toxicity at 300 mg/kg” throughout. Besides, the MES entry in the series on Mus musculus [1] and with Mus musculus [4] was “No activity or toxicity at 300 mg/kg” throughout. For the same compound, the scMet entry in the series on Mus musculus [2] and in the series with Mus musculus [6] was “No activity or no toxicity at 300 mg/kg” each time.
Turning to `CCC(=O)c1ccc2nc(O)sc2c1`, the Rotarod toxicity entry in [17] and in series [3] was “No activity or no toxicity at 300 mg/kg” throughout. The MES result in the series with Mus musculus [1] and in the series on Mus musculus [4] was “No activity or toxicity at 300 mg/kg” in each case. The scMet result with Mus musculus [2] and in the series with Mus musculus [6] was “No activity or no toxicity at 300 mg/kg” throughout.
